# According to patent publication US9988373B2, “Nitrogen-containing six-membered cyclic derivatives and pharmaceutical composition comprising the same” (SHIONOGI & CO., LTD., priority 2013, dated 2018):
# Target: T1, human P2X7 receptor (Homo sapiens, UniProt Q99572, R270H)
# T1 construct: expressed in transfected cells
# T1 sequence (Q99572 1-595 R270H): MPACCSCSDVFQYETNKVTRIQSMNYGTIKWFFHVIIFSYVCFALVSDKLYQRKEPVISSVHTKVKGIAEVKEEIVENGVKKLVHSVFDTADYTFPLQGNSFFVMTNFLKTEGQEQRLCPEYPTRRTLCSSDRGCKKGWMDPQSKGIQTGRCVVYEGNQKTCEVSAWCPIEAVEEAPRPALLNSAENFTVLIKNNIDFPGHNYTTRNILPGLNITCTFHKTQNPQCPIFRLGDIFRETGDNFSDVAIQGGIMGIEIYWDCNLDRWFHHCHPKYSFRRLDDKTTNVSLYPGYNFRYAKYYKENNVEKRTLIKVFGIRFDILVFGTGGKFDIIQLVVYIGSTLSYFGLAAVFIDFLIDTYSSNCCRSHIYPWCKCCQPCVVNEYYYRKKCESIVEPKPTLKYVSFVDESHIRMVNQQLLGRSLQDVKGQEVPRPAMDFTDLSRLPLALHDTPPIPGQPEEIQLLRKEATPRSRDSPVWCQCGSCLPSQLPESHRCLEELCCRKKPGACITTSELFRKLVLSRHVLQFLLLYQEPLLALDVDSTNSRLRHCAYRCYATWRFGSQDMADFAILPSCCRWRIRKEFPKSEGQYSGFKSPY
# Test: Evaluation of a human P2X7 receptor inhibitory activity (Yo-Pro uptake, BzATP stimulation, FLIPR TETRA)
# Assay type: cell-based
# Settings: antagonistic activity for the human P2X7 receptor, 1321N1 cell transfected with the human P2X7 receptor gene, Yo-Pro fluorescence
# Protocol: Test Example 1 Evaluation of a Human P2X7 Receptor Inhibitory Activity
# Stably expressing cell line (1321N1 cell transfected with the human P2X7 receptor gene (GenBank accession number NM_002562.5 including T606C and G952A SNP)) was used. The cells were seeded in a 384-well microtiter plate at a concentration of 8000 cells/well and cultured in the medium (10% fetal bovine serum, 25 mM HEPES, 1% penicillin and streptomycin in DMEM) for one day at 37° C. under 5% carbon dioxide atmosphere. After replacing with 20 μL of the HBSS buffer (20 mM HEPES. 55.6 mM D-glucose, 1×HBSS(−), pH 7.4-7.5), 15 μL of 17.3 μM Yo-Pro solution in the HBSS buffer was added. The plate was placed in high-throughput cellular screening system FLIPR TETRA (Molecullar Devices, LLC.) and 15 μL of 130 μM BzATP solution in the HBSS buffer was added. Measurement of fluorescence intensity by FLIPR TETRA was started. After eight minutes, 15 μL of DMSO solutions containing different concentrations of the compound of the present invention as prepared by dilution with the HBSS buffer were dispensed to each well through the built-in automatic dispenser, and the measurement of fluorescence intensity was continued for 20 minutes. The maximum fluorescence intensity without the compound of the present invention is calculated as 0% inhibition and the maximum fluorescence intensity when the reference compound was added is calculated as 100% inhibition. Changing values of fluorescence intensity by the compound of the present invention were calculated by difference between maximum and minimum fluorescence intensity for 20 minutes. Inhibition ratios (%) were calculated from the following equation:
# [formula] IC50 was calculated using logistic approximation.
row,Structure (SMILES),IC50 [nM]
1,O=c1ccn(Cc2ccc(F)cc2)c(-c2cccc(Cl)c2Cl)c1 [Compound I-020],810
2,O=c1cc(-c2cccc(C(F)(F)F)c2Cl)n(Cc2ccccc2F)cc1Br [Compound I-001],67
3,COc1cn(Cc2ccccc2)c(-c2cccc(C(F)(F)F)c2Cl)cc1=O [Compound I-015],44

# Results, then the compound that gave them:
row,IC50 [nM],Structure (SMILES)
1,1000,COc1cn(CC#N)c(-c2cccc(C(F)(F)F)c2Cl)nc1=O [II-032]
2,110,O=c1cnn(Cc2ccccc2)c(-c2cccc(C(F)(F)F)c2Cl)c1 [III-002]
3,60,O=c1nc(-c2cccc(C(F)(F)F)c2Cl)n(Cc2ccccc2)cc1OCC(F)(F)F [II-033]
4,210,Cc1cn(Cc2ccccc2)c(-c2cccc(C(F)(F)F)c2Cl)nc1=O [II-030]
5,110,O=c1cc(-c2cccc(C(F)(F)F)c2Cl)n(Cc2ccccc2)cn1 [III-001]
6,610,O=c1ccn(CC2CCCCC2)c(-c2cccc(C(F)(F)F)c2Cl)n1 [II-077]

# Same assay, conditions: antagonistic activity for the human P2X7 receptor, 1321N1 cell transfected with the human P2X7 receptor gene, Yo-Pro fluorescence, class symbols
row,Structure (SMILES),IC50 [nM]
1,O=c1ccn(Cc2ccc(-c3ccccc3)cc2)c(-c2cccc(C(F)(F)F)c2Cl)c1 [Compound I-043],1000 to 10000
2,O=c1ccn(Cc2ccccc2-c2ccccc2)c(-c2cccc(C(F)(F)F)c2Cl)c1 [Compound I-039],1000 to 10000
3,N#Cc1cccc(Cn2cc(N3CCCC3)c(=O)cc2-c2cccc(C(F)(F)F)c2Cl)c1 [Compound I-004],500 to 1000
4,O=c1ccn(Cc2c(F)cccc2F)c(-c2cccc(C(F)(F)F)c2Cl)c1 [Compound I-054],100 to 500
5,O=c1ccn(Cc2ccccc2Cl)c(-c2cccc(C(F)(F)F)c2Cl)c1 [Compound I-059],100 to 500
6,N#Cc1cccc(Cn2cc(N)c(=O)cc2-c2cccc(C(F)(F)F)c2Cl)c1 [Compound I-006],500 to 1000
7,O=c1ccn(Cc2ccccn2)c(-c2cccc(C(F)(F)F)c2Cl)c1 [Compound I-058],500 to 1000
8,O=c1ccn(Cc2ccc(C(F)(F)F)o2)c(-c2cccc(C(F)(F)F)c2Cl)c1 [Compound I-067],500 to 1000
9,COc1ccc(-c2noc(Cn3ccc(=O)cc3-c3cccc(C(F)(F)F)c3Cl)n2)cc1 [Compound I-038],1000 to 10000
10,N#CCOc1cn(Cc2ccccc2)c(-c2cccc(C(F)(F)F)c2Cl)cc1=O [Compound I-073],< 50
11,O=c1ccn(Cc2ccccc2OCc2ccccc2)c(-c2cccc(C(F)(F)F)c2Cl)c1 [Compound I-049],100 to 500
12,O=c1ccn(Cc2ccccc2F)c(-c2cccc(C(F)(F)F)c2Cl)c1 [Compound I-022],100 to 500
13,O=c1ccn(Cc2cccc(=O)[nH]2)c(-c2cccc(C(F)(F)F)c2Cl)c1 [Compound I-034],500 to 1000
14,O=c1ccn(Cc2cccc(-c3ccccc3)c2)c(-c2cccc(C(F)(F)F)c2Cl)c1 [Compound I-061],1000 to 10000
15,O=c1ccn(Cc2cccc(C(F)(F)F)c2)c(-c2cccc(C(F)(F)F)c2Cl)c1 [Compound I-050],1000 to 10000
16,O=c1ccn(Cc2cccc(F)c2F)c(-c2cccc(C(F)(F)F)c2Cl)c1 [Compound I-062],500 to 1000
17,NC(=O)c1ccc(Cn2ccc(=O)cc2-c2cccc(C(F)(F)F)c2Cl)cc1 [Compound I-063],1000 to 10000
18,N#Cc1cn(Cc2ccccc2F)c(-c2cccc(C(F)(F)F)c2Cl)cc1=O [Compound I-002],< 50
19,CCOc1cn(Cc2ccccc2)c(-c2cccc(C(F)(F)F)c2Cl)cc1=O [Compound I-072],< 50
20,O=c1ccn(Cc2ccccc2)c(-c2cccc(C(F)(F)F)c2Cl)c1 [Compound I-019],100 to 500
21,Cc1ccc(Cn2ccc(=O)cc2-c2cccc(C(F)(F)F)c2Cl)cc1 [Compound I-029],1000 to 10000
22,COc1cccc(Cn2cc(Br)c(=O)cc2-c2cccc(C(F)(F)F)c2Cl)c1 [Compound I-009],100 to 500
23,O=c1ccn(Cc2cccc(Cl)c2)c(-c2cccc(C(F)(F)F)c2Cl)c1 [Compound I-055],100 to 500
24,O=c1ccn(Cc2ccc(F)cc2)c(-c2cccc(C(F)(F)F)c2Cl)c1 [Compound I-017],500 to 1000

# Continued, values first:
row,IC50 [nM],Structure (SMILES)
1,< 50,N#CCOc1cn(Cc2ccccc2)c(-c2cccc(C(F)(F)F)c2Cl)nc1=O [II-022]
2,1000 to 10000,COc1cn(Cc2ccccc2C)c(-c2ccc(C(F)(F)F)cc2)nc1=O [II-066]
3,100 to 500,O=c1nc(-c2cccc(C(F)(F)F)c2Cl)n(Cc2ccccc2)cc1OC(F)F [II-035]
4,1000 to 10000,COc1cn(Cc2ccccc2C)c(-c2cccc(Cl)c2)nc1=O [II-059]
5,100 to 500,COc1cn(Cc2ccccc2C)c(-c2cccc(C(F)(F)F)c2)nc1=O [II-065]
6,< 50,Cc1ccccc1Cn1cc(Br)c(=O)nc1-c1cccc(C(F)(F)F)c1Cl [II-003]
7,50 to 100,CCOc1cn(Cc2ccccc2)c(-c2cccc(C(F)(F)F)c2Cl)nc1=O [II-024]
8,50 to 100,COc1cn(Cc2ccc(F)cc2C)c(-c2cccc(C(F)(F)F)c2Cl)nc1=O [II-007]
9,50 to 100,COc1cn(Cc2cccc(F)c2)c(-c2cccc(C(F)(F)F)c2Cl)nc1=O [II-006]
10,< 50,Cc1ccccc1Cn1cc(F)c(=O)nc1-c1cccc(C(F)(F)F)c1Cl [II-011]
11,< 50,COc1cn(Cc2ccccc2Cl)c(-c2cccc(C(F)(F)F)c2Cl)nc1=O [II-095]
12,1000 to 10000,COc1cn(Cc2ccccc2)c(C2=CCSCC2)nc1=O [II-072]
13,1000 to 10000,COc1cn(Cc2ccccc2C)c(-c2ccc(F)cc2)nc1=O [II-063]
14,1000 to 10000,O=c1ccn(CCc2ccccc2)c(-c2cccc(C(F)(F)F)c2Cl)n1 [II-076]
15,1000 to 10000,COc1cn(Cc2ccccc2)c(C2=CCCCCC2)nc1=O [II-069]
16,1000 to 10000,COc1cn(Cc2ccccc2C)c(-c2cccc(F)c2)nc1=O [II-062]
17,100 to 500,COc1cn(Cc2cccc(C#N)c2)c(-c2cccc(C(F)(F)F)c2Cl)nc1=O [II-013]
18,1000 to 10000,COc1cn(Cc2ccccc2)c(C2=C[C@H]3CC[C@@H]2C3)nc1=O [II-071]
19,100 to 500,COc1cn(Cc2cccnc2C(F)(F)F)c(-c2cccc(C(F)(F)F)c2Cl)nc1=O [II-094]

row,IC50 [nM],Structure (SMILES)
1,100 to 500,CC1(COc2cn(Cc3ccccc3)c(-c3cccc(C(F)(F)F)c3Cl)nc2=O)COC1 [II-029]
2,500 to 1000,COc1cn(Cc2ccccc2C)c(-c2ccccc2Cl)nc1=O [II-074]
3,500 to 1000,COc1cn(Cc2ccccc2C)c(-c2ccccc2C(F)(F)F)nc1=O [II-064]
4,< 50,O=c1nc(-c2cccc(C(F)(F)F)c2Cl)n(Cc2ccccc2)cc1OCc1ccccc1 [II-023]
5,< 50,COc1cccc(Cn2cc(OC)c(=O)nc2-c2cccc(C(F)(F)F)c2Cl)c1 [II-086]
6,1000 to 10000,COc1cn(Cc2ccccc2)c(-c2cc(Cl)ccc2Cl)nc1=O [II-101]
7,1000 to 10000,COc1cn(Cc2ccncc2)c(-c2cccc(C(F)(F)F)c2Cl)nc1=O [II-020]
8,< 50,N#CCn1cc(OCc2ccccc2)c(=O)nc1-c1cccc(C(F)(F)F)c1Cl [II-085]
9,100 to 500,O=c1ccn(Cc2ccccc2)c(-c2cccc(C(F)(F)F)c2Cl)n1 [II-048]
10,< 50,C#CCOc1cn(Cc2ccccc2)c(-c2cccc(C(F)(F)F)c2Cl)nc1=O [II-040]
11,< 50,CC(C#N)Oc1cn(Cc2ccccc2)c(-c2cccc(C(F)(F)F)c2Cl)nc1=O (stereo not shown) [II-041]
12,50 to 100,COc1cn(Cc2ccccc2)c(-c2cccc(Cl)c2C(F)(F)F)nc1=O [II-083]
13,< 50,COc1ccccc1Cn1cc(F)c(=O)nc1-c1cccc(C(F)(F)F)c1Cl [II-093]
14,< 50,COc1ccccc1Cn1cc(OC)c(=O)nc1-c1cccc(C(F)(F)F)c1Cl [II-087]
15,50 to 100,COc1cn(Cc2cccc(CO)c2)c(-c2cccc(C(F)(F)F)c2Cl)nc1=O [II-019]
16,100 to 500,CN(C)c1cn(Cc2ccccc2)c(-c2cccc(C(F)(F)F)c2Cl)nc1=O [II-051]
17,50 to 100,COc1cn(Cc2ccccc2F)c(-c2cccc(C(F)(F)F)c2Cl)nc1=O [II-005]
18,500 to 1000,NCCOc1cn(Cc2ccccc2)c(-c2cccc(C(F)(F)F)c2Cl)nc1=O [II-027]
